Measured values as given in patent publication US20230303483A1, “USE OF STROBILURIN TYPE COMPOUNDS FOR COMBATING PHYTOPATHOGENIC FUNGI CONTAINING AN AMINO ACID SUBSTITUTION F129L IN THE MITOCHONDRIAL CYTOCHROME B PROTEIN CONFERRING RESISTANCE TO QO […]” (BASF SE, priority 2020, published 2023).

Legend:
[1] = tested on: Phakopsora pachyrhizi (strain containing the amino acid substitution F129L in the mitochondrial cytochrome b protein); assay: Use example 1: protective control of soybean rust on soybeans (PHAKPA P2), inoculation 2 days after spraying; format: in vivo; settings: % diseased leaf area on soybean, 16 ppm spray, inoculation 2 days after treatment, untreated controls usually >85 %
Procedure: (§1) The compound was dissolved in a mixture of acetone and/or dimethylsulfoxide and the wetting agent/emulsifier Wettol, which is based on ethoxylated alkylphenoles, in a ratio (volume) solvent-emulsifier of 99 to 1 to give a total volume of 5 ml. Subsequently, water was added to total volume of 100 ml. This stock solution was then diluted with the described solvent-emulsifier-water mixture to the final concentration given in the table below.
Use example 1. Protective control of soybean rust on soybeans caused by Phakopsora pachyrhizi (PHAKPA P2)
(§2) Leaves of potted soybean seedlings were sprayed to run-off with the previously described spray solution, containing the concentration of active ingredient or their mixture as described below. The plants were allowed to air-dry. The trial plants were cultivated for 2 days in a greenhouse chamber at 23-27° C. and a relative humidity between 60 and 80 %. Then the plants were inoculated with spores of Phakopsora pachyrhizi. The strain used contains the amino acid substitution F129L in the mitochondrial cytochrome b protein conferring resistance to Qo inhibitors. To ensure the success the artificial inoculation, the plants were transferred to a humid chamber with a relative humidity of about 95 % and 20 to 24° C. for 24 hr. The trial plants were cultivated for up to 14 days in a greenhouse chamber at 23 to 27° C. and a relative humidity between 60 and 80 %. The extent of fungal attack on the leaves was visually assessed as % diseased leaf area, the disease level of untreated controls was usually higher than 85 %.
(§3) All test results below are given for the control of phytopathogenic fungi containing the amino acid substitution F129L in the mitochondrial cytochrome b protein conferring resistance to Qo inhibitors.

[2] = tested on: Phakopsora pachyrhizi (strain containing the amino acid substitution F129L in the mitochondrial cytochrome b protein); assay: Use example 2: protective control of soybean rust on soybeans (PHAKPA P6), inoculation six days after spraying; format: in vivo; settings: % diseased leaf area on soybean, 16 ppm spray, inoculation six days after treatment, untreated controls usually >85 %
Procedure: as §1
Use example 2. Protective control of soybean rust on soybeans caused by Phakopsora pachyrhizi (PHAKPA P6)
as §2, with “active ingredient as described” for “active ingredient or their mixture as described”, “cultivated for six days in” for “cultivated for 2 days in”, “% and 23 to 27°” for “% and 20 to 24°”, “23 to 27° C. for” for “20 to 24° C. for”
as §3

| Compound | PHAKPA Disease level (%) P2 at 16 ppm [1] | PHAKPA Disease level (%) P6 at 16 ppm [2] |
| --- | --- | --- |
| CO/N=C(/C(=O)OC)c1ccccc1CO/N=C(\C)C#Cc1ccccc1Br [Example 46] | 47% | 37% |
| CNC(=O)/C(=N/OC)c1cccc(C)c1CO/N=C(\C)C#Cc1ccccc1Br [Example 47] | 0% | 0% |
| CNC(=O)/C(=N/OC)c1ccccc1CO/N=C(\C)C#Cc1ccccc1Br [Example 48] | 0% | 2% |
| CNC(=O)/C(=N/OC)c1cccc(C)c1CO/N=C(\C)C#Cc1ccccc1C [Example 49] | 0% | 0% |
| CNC(=O)/C(=N/OC)c1ccccc1CO/N=C(\C)C#Cc1ccccc1C [Example 51] | 0% | 0% |
| CO/N=C(/C(=O)OC)c1ccccc1CO/N=C(\C)C#Cc1cccc(OC(F)(F)F)c1 [Example 52] | 13% | 33% |
| CNC(=O)/C(=N/OC)c1ccccc1CO/N=C(\C)C#Cc1cccc(OC(F)(F)F)c1 [Example 53] | 0% | 0% |
| CO/N=C(/C(=O)OC)c1ccccc1CO/N=C(\C)C#Cc1ccc(Br)cc1 [Example 54] | 22% | 25% |
| CNC(=O)/C(=N/OC)c1ccccc1CO/N=C(\C)C#Cc1ccc(Br)cc1 [Example 55] | 23% | 40% |
| CO/N=C(/C(=O)OC)c1cccc(C)c1CO/N=C(\C)C#Cc1ccc(Br)cc1 [Example 56] | 18% | 37% |
| CNC(=O)/C(=N/OC)c1cccc(C)c1CO/N=C(\C)C#Cc1cccc(C)c1 [Example 57] | 0% | 0% |
| CNC(=O)/C(=N/OC)c1ccccc1CO/N=C(\C)C#Cc1cccc(C)c1 [Example 58] | 2% | 4% |
| CNC(=O)/C(=N/OC)c1cccc(C)c1CO/N=C(\C)C#Cc1ccc(Br)cc1 [Example 59] | 13% | 28% |
| CO/N=C(/C(=O)OC)c1ccccc1CO/N=C(\C)C#Cc1ccccc1F [Example 60] | 40% | 17% |
| CO/N=C(/C(=O)OC)c1cccc(C)c1CO/N=C(\C)C#Cc1ccccc1F [Example 61] | 8% | 8% |
| CNC(=O)/C(=N/OC)c1ccccc1CO/N=C(\C)C#Cc1ccccc1F [Example 62] | 2% | 2% |
| CNC(=O)/C(=N/OC)c1cccc(C)c1CO/N=C(\C)C#Cc1ccccc1F [Example 63] | 0% | 0% |
| CO/N=C(/C(=O)OC)c1cccc(C)c1CO/N=C(\C)C#Cc1ccc(C(F)(F)F)cc1 [Example 64] | 43% | 60% |
| CO/N=C(/C(=O)OC)c1ccccc1CO/N=C(\C)C#Cc1ccc(C(F)(F)F)cc1 [Example 65] | 80% | 70% |
| CO/N=C(/C(=O)OC)c1cccc(C)c1CO/N=C(\C)C#Cc1ccccc1C(F)(F)F [Example 66] | 17% | 30% |
| CO/N=C(/C(=O)OC)c1ccccc1CO/N=C(\C)C#Cc1ccccc1C(F)(F)F [Example 67] | 50% | 60% |
| CNC(=O)/C(=N/OC)c1cccc(C)c1CO/N=C(\C)C#Cc1ccccc1C(F)(F)F [Example 68] | 0% | 1% |
| CNC(=O)/C(=N/OC)c1ccccc1CO/N=C(\C)C#Cc1ccccc1C(F)(F)F [Example 69] | 1% | 2% |
